{"source": "patent US9486427B2", "about": "“Administration of aerosolised iloprost” (VECTURA GMBH, priority 2012, dated 2016)", "key": {"[1]": {"system": "patients with pulmonary arterial hypertension", "assay": "Clinical pilot study of safety and tolerability of rapidly inhaled nebulised iloprost (Example 3)", "assay_type": "in vivo, human", "description": "A clinical pilot study to evaluate the safety and tolerability of nebulised iloprost administered by inhalation according to the invention was conducted with 4 patients. Eligible were male and female patients with pulmonary arterial hypertension in the age from 18 to 70 years having a mean pulmonary arterial blood pressure (PAP) higher than 25 mm Hg, a pulmonary vascular resistance (PVR) higher than 240 dyn*s*cm^−5, a central venous pressure (CVP) higher than 3 mm Hg, and a pulmonary capillary wedge pressure (PCWP) lower than 12 mm Hg. Excluded were patients with a contraindication for cardiac catheterisation (such as coagulopathy, bleeding disorder, acute infection, severe cardiac dysrhythmia), pregnancy, systemic systolic blood pressure below 110 mm Hg, highly impaired ventricular function with cardiac index below 1.8 L/min*m^2, and known lack of pulmonary vascular reactivity. Patients were monitored by ECG, pulse oxymetry, and non-invasive blood pressure measurement. An intracardiac catheter was introduced into the distal pulmonary artery to measure PAP, CVP, PCWP, and cardiac output. Also measured were the heart rate, systemic arterial pressure (SAP), systemic vascular resistance (SVR), central arterial and venous blood gases. After the initial determination of all parameters the reactivity of the pulmonary vasculature to oxygen (2 to 4 L/min) and nitric oxide (20 ppm) was tested. Subsequently, patients inhaled a single dose of 2.5 μg of nebulised iloprost in two consecutive breaths, using the same inhalation system and iloprost composition as described in Example 1. Haemodynamics parameters and clinical condition of the patients were assessed before and up to 30 minutes after inhalation. In the absence of adverse effects, a second inhalation maneuver with 4 consecutive breaths corresponding to a dose 5 μg iloprost was performed, again followed by an observation period of at least 30 minutes."}, "[2]": {"settings": "cited from earlier work"}, "[3]": {"settings": "2.8 μg in 2 minutes, ultrasonic nebuliser; cited from earlier work"}, "[4]": {"system": "patients suffering from pulmonary hypertension (PH)", "assay": "Iloprost inhalation in six further patients (Example 4)", "assay_type": "in vivo, human", "settings": "rapid inhalation as in Example 3", "description": "Six further patients suffering from pulmonary hypertension (PH) were treated with iloprost inhalation as in Example 3."}, "[5]": {"settings": "2.5 μg and 5 μg rapid inhalation"}}, "note": "Like-named read-outs stand apart in the source and are kept apart here.", "data": [{"smiles": "CC#CCC(C)[C@H](O)/C=C/[C@@H]1[C@H]2C/C(=C/CCCC(=O)O)C[C@H]2C[C@H]1O", "note": "(stereo partly drawn) [Iloprost, 5-{(E)-(1S,5S,6R,7R)-7-hydroxy-6[(E)-(3S,4RS)-3-hydroxy-4-methyl-1-octen-6-inyl]-bi-cyclo[3.3.0]octan-3-ylidene}pentanoic acid]", "values": [{"measurement": "systemic side effects (SAP and SVR changes) versus slow inhalation of iloprost", "setting": "[1]; [5]", "value": "similar"}, {"measurement": "therapeutic pulmonary vascular effects (PAP and PVR changes) versus slow inhalation of iloprost", "setting": "[1]; [5]", "value": "comparable to those observed after conventional iloprost treatment"}, {"measurement": "tolerability of the treatment", "setting": "[1]; 2.5 μg in two breaths, then 5 μg in 4 breaths, inhaled, 4 patients", "value": "all patients tolerated the treatment well"}, {"measurement": "solubility", "setting": "[2]; aqueous buffer pH 9", "value": "sparingly soluble"}, {"measurement": "aqueous solubility", "setting": "[2]", "value": "rather poor"}, {"measurement": "solubility", "setting": "[2]; distilled water and aqueous buffer at pH 3 and pH 5", "value": "very slightly soluble"}, {"measurement": "solubility", "setting": "[2]; methanol, ethanol, ethyl acetate, acetone and aqueous buffer at pH 7", "value": "soluble"}, {"measurement": "systemic effects of rapid inhalation (drop in blood pressure, decrease in systemic vascular resistance, flush, jaw pain)", "setting": "[3]", "value": "adverse systemic effects"}, {"measurement": "adverse effects", "setting": "[4]", "value": "no adverse effects were observed other than the SAP and SVR changes which were mild"}, {"measurement": "pulmonary vascular effects", "setting": "[4]; PAH, iPAH, portopulmonary, CTEPH", "value": "very comparable to those found in Example 3"}]}]}
